According to PubChem BioAssay (NCI):
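Protocol summary: plate cells (96-well), add compound at 5 concentrations, incubate 48 h, interpolate endpoints linearly. At the TGI there is no net growth.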

Tests used:
Assay in all cases: inhibition of tumour cell growth, NCI panel, 48 h
NCI-H226 lung = test system: NCI-H226 lung
DLD-1 colon = test system: DLD-1 colon
KM20L2 colon = test system: KM20L2 colon
U251 CNS = test system: U251 CNS
SK-OV-3 ovarian = test system: SK-OV-3 ovarian
DMS 114 small cell lung = test system: DMS 114 small cell lung
HOP-18 NSCLC = test system: HOP-18 NSCLC
HT29 colon = test system: HT29 colon
HOP-92 NSCLC = test system: HOP-92 NSCLC
HOP-62 NSCLC = test system: HOP-62 NSCLC
ACHN renal = test system: ACHN renal
CAKI-1 renal = test system: CAKI-1 renal
SN12C renal = test system: SN12C renal
NCI-H522 lung = test system: NCI-H522 lung
SF-295 CNS = test system: SF-295 CNS
DMS 273 small cell lung = test system: DMS 273 small cell lung
A498 renal = test system: A498 renal
HCT-116 colon = test system: HCT-116 colon
M19-MEL melanoma = test system: M19-MEL melanoma
SNB-19 CNS = test system: SNB-19 CNS
OVCAR-5 ovarian = test system: OVCAR-5 ovarian
HCT-15 colon = test system: HCT-15 colon
COLO 205 colon = test system: COLO 205 colon
NCI-H460 lung = test system: NCI-H460 lung
TK-10 renal = test system: TK-10 renal
EKVX NSCLC = test system: EKVX NSCLC
SNB-75 CNS = test system: SNB-75 CNS
UACC-62 melanoma = test system: UACC-62 melanoma
LXFL 529 NSCLC = test system: LXFL 529 NSCLC
SK-MEL-28 melanoma = test system: SK-MEL-28 melanoma
OVCAR-4 ovarian = test system: OVCAR-4 ovarian
SF-539 CNS = test system: SF-539 CNS
RPMI-8226 leukemia = test system: RPMI-8226 leukemia
M14 melanoma = test system: M14 melanoma
A549 NSCLC = test system: A549 NSCLC
CCRF-CEM leukemia = test system: CCRF-CEM leukemia
K-562 leukemia = test system: K-562 leukemia
SK-MEL-5 melanoma = test system: SK-MEL-5 melanoma
SK-MEL-2 melanoma = test system: SK-MEL-2 melanoma
786-0 renal = test system: 786-0 renal
IGROV1 ovarian = test system: IGROV1 ovarian
MALME-3M melanoma = test system: MALME-3M melanoma
HCC-2998 colon = test system: HCC-2998 colon
MOLT-4 leukemia = test system: MOLT-4 leukemia
SF-268 CNS = test system: SF-268 CNS
OVCAR-8 ovarian = test system: OVCAR-8 ovarian
HL-60(TB) leukemia = test system: HL-60(TB) leukemia
OVCAR-3 ovarian = test system: OVCAR-3 ovarian
NCI-H23 lung = test system: NCI-H23 lung
KM12 colon = test system: KM12 colon
SW-620 colon = test system: SW-620 colon
LOX IMVI melanoma = test system: LOX IMVI melanoma
UO-31 renal = test system: UO-31 renal
UACC-257 melanoma = test system: UACC-257 melanoma
RXF-631 renal = test system: RXF-631 renal
XF 498 CNS = test system: XF 498 CNS
SR leukemia = test system: SR leukemia
SNB-78 CNS = test system: SNB-78 CNS
RXF 393 renal = test system: RXF 393 renal

CCOC(=O)C(=Cc1ccc(C(=O)OC)cc1)C(=O)OCC
TGI (NCI-H226 lung): 4.45 µM | TGI (DLD-1 colon): 4.46 µM | TGI (KM20L2 colon): 14.1 µM | TGI (U251 CNS): 4.77 µM | TGI (SK-OV-3 ovarian): 26.4 µM | TGI (DMS 114 small cell lung): 3.74 µM | TGI (HOP-18 NSCLC): 10.7 µM | TGI (HT29 colon): 18.1 µM | TGI (HOP-92 NSCLC): 4.02 µM | TGI (HOP-62 NSCLC): 4.43 µM | TGI (ACHN renal): 3.48 µM | TGI (CAKI-1 renal): 3.35 µM | TGI (SN12C renal): 5 µM | TGI (NCI-H522 lung): 2.8 µM | TGI (SF-295 CNS): 19.2 µM | TGI (DMS 273 small cell lung): 3.9 µM | TGI (A498 renal): 26 µM | TGI (HCT-116 colon): 12.5 µM | TGI (M19-MEL melanoma): 10.2 µM | TGI (SNB-19 CNS): 6.47 µM | TGI (OVCAR-5 ovarian): 21.9 µM | TGI (HCT-15 colon): 6.76 µM | TGI (COLO 205 colon): 3.59 µM | TGI (NCI-H460 lung): 55.2 µM | TGI (TK-10 renal): 7.34 µM | TGI (EKVX NSCLC): 26.9 µM | TGI (SNB-75 CNS): 4.65 µM | TGI (UACC-62 melanoma): 5.47 µM | TGI (LXFL 529 NSCLC): 3.62 µM | TGI (SK-MEL-28 melanoma): 3.34 µM | TGI (OVCAR-4 ovarian): 14 µM | TGI (SF-539 CNS): 3.17 µM | TGI (RPMI-8226 leukemia): 4.73 µM | TGI (M14 melanoma): 3.36 µM | TGI (A549 NSCLC): 12.4 µM | TGI (CCRF-CEM leukemia): 4.71 µM | TGI (K-562 leukemia): > 100 µM | TGI (SK-MEL-5 melanoma): 4.64 µM | TGI (SK-MEL-2 melanoma): 3.37 µM | TGI (786-0 renal): 3.15 µM | TGI (IGROV1 ovarian): 7.73 µM | TGI (MALME-3M melanoma): 3.52 µM | TGI (HCC-2998 colon): 12.1 µM | TGI (MOLT-4 leukemia): 7.74 µM | TGI (SF-268 CNS): 6.51 µM | TGI (OVCAR-8 ovarian): 10.3 µM | TGI (HL-60(TB) leukemia): 4.36 µM | TGI (OVCAR-3 ovarian): 9.57 µM | TGI (NCI-H23 lung): 3.36 µM | TGI (KM12 colon): 8.15 µM | TGI (SW-620 colon): 6.11 µM | TGI (LOX IMVI melanoma): 3.55 µM

COc1ccc(/C(=N/Nc2ccccc2)C(c2ccc(OC)cc2)C2OC(=O)c3ccccc32)cc1 (stereo not drawn)
TGI (NCI-H226 lung): 65.8 µM | TGI (UO-31 renal): > 100 µM | TGI (KM20L2 colon): > 100 µM | TGI (U251 CNS): > 100 µM | TGI (DMS 114 small cell lung): > 100 µM | TGI (HT29 colon): > 100 µM | TGI (HOP-62 NSCLC): > 100 µM | TGI (ACHN renal): > 100 µM | TGI (CAKI-1 renal): > 100 µM | TGI (SN12C renal): > 100 µM | TGI (NCI-H522 lung): > 100 µM | TGI (SF-295 CNS): > 100 µM | TGI (DMS 273 small cell lung): > 100 µM | TGI (A498 renal): > 100 µM | TGI (HCT-116 colon): > 100 µM | TGI (SNB-19 CNS): > 100 µM | TGI (HCT-15 colon): > 100 µM | TGI (COLO 205 colon): > 100 µM | TGI (NCI-H460 lung): > 100 µM | TGI (EKVX NSCLC): > 100 µM | TGI (SNB-75 CNS): > 100 µM | TGI (UACC-62 melanoma): > 100 µM | TGI (OVCAR-4 ovarian): > 100 µM | TGI (SF-539 CNS): > 100 µM | TGI (M14 melanoma): > 100 µM | TGI (A549 NSCLC): > 100 µM | TGI (CCRF-CEM leukemia): > 100 µM | TGI (K-562 leukemia): > 100 µM | TGI (SK-MEL-5 melanoma): > 100 µM | TGI (UACC-257 melanoma): > 100 µM | TGI (SK-MEL-2 melanoma): > 100 µM | TGI (RXF-631 renal): > 100 µM | TGI (786-0 renal): > 100 µM | TGI (IGROV1 ovarian): > 100 µM | TGI (XF 498 CNS): > 100 µM | TGI (MALME-3M melanoma): > 100 µM | TGI (HCC-2998 colon): > 100 µM | TGI (MOLT-4 leukemia): > 100 µM | TGI (SF-268 CNS): 91.8 µM | TGI (OVCAR-8 ovarian): > 100 µM

CCN(c1ccc(Br)cc1)c1c(Br)c(=O)nc2ccccn12
TGI (NCI-H226 lung): > 100 µM | TGI (DLD-1 colon): > 100 µM | TGI (UO-31 renal): > 100 µM | TGI (KM20L2 colon): > 100 µM | TGI (U251 CNS): > 100 µM | TGI (SK-OV-3 ovarian): > 100 µM | TGI (DMS 114 small cell lung): > 100 µM | TGI (HT29 colon): > 100 µM | TGI (HOP-92 NSCLC): > 100 µM | TGI (HOP-62 NSCLC): > 100 µM | TGI (ACHN renal): > 100 µM | TGI (CAKI-1 renal): > 100 µM | TGI (SN12C renal): > 100 µM | TGI (NCI-H522 lung): > 100 µM | TGI (DMS 273 small cell lung): > 100 µM | TGI (A498 renal): > 100 µM | TGI (HCT-116 colon): > 100 µM | TGI (M19-MEL melanoma): > 100 µM | TGI (SNB-19 CNS): > 100 µM | TGI (OVCAR-5 ovarian): > 100 µM | TGI (HCT-15 colon): > 100 µM | TGI (COLO 205 colon): > 100 µM | TGI (SR leukemia): > 100 µM | TGI (NCI-H460 lung): > 100 µM | TGI (TK-10 renal): > 100 µM | TGI (EKVX NSCLC): > 100 µM | TGI (SNB-75 CNS): > 100 µM | TGI (UACC-62 melanoma): > 100 µM | TGI (LXFL 529 NSCLC): > 100 µM | TGI (SK-MEL-28 melanoma): > 100 µM | TGI (SF-539 CNS): > 100 µM | TGI (RPMI-8226 leukemia): > 100 µM | TGI (M14 melanoma): > 100 µM | TGI (A549 NSCLC): > 100 µM | TGI (CCRF-CEM leukemia): > 100 µM | TGI (K-562 leukemia): > 100 µM | TGI (SK-MEL-5 melanoma): > 100 µM | TGI (SNB-78 CNS): > 100 µM | TGI (SK-MEL-2 melanoma): > 100 µM | TGI (RXF-631 renal): > 100 µM | TGI (786-0 renal): > 100 µM | TGI (IGROV1 ovarian): > 100 µM | TGI (XF 498 CNS): > 100 µM | TGI (MALME-3M melanoma): > 100 µM | TGI (MOLT-4 leukemia): > 100 µM | TGI (SF-268 CNS): > 100 µM | TGI (OVCAR-8 ovarian): > 100 µM | TGI (OVCAR-3 ovarian): > 100 µM | TGI (NCI-H23 lung): > 100 µM | TGI (KM12 colon): > 100 µM | TGI (SW-620 colon): > 100 µM

CC(=O)O[C@H]1CCC(C)=CCC[C@@]2(C)C(CC[C@@H]2[C@@H](C)/C=C/C(C)C)c2ccc(cc2C(=O)O)C1 (stereo partly drawn)
TGI (UO-31 renal): 9.82 µM | TGI (KM20L2 colon): 14.1 µM | TGI (U251 CNS): 8.25 µM | TGI (SK-OV-3 ovarian): 13.8 µM | TGI (HT29 colon): 13.6 µM | TGI (HOP-92 NSCLC): 13.3 µM | TGI (HOP-62 NSCLC): 7.49 µM | TGI (ACHN renal): 15.5 µM | TGI (RXF 393 renal): 7.67 µM | TGI (NCI-H522 lung): 6.47 µM | TGI (SF-295 CNS): 8.43 µM | TGI (DMS 273 small cell lung): 13.3 µM | TGI (A498 renal): 19.8 µM | TGI (HCT-116 colon): 11.9 µM | TGI (M19-MEL melanoma): 14 µM | TGI (SNB-19 CNS): 13 µM | TGI (OVCAR-5 ovarian): 8.43 µM | TGI (SR leukemia): 7.61 µM | TGI (NCI-H460 lung): 10.8 µM | TGI (TK-10 renal): 13.7 µM | TGI (EKVX NSCLC): 30.5 µM | TGI (UACC-62 melanoma): 3.79 µM | TGI (SK-MEL-28 melanoma): 16.9 µM | TGI (M14 melanoma): 20.3 µM | TGI (CCRF-CEM leukemia): 12.2 µM | TGI (K-562 leukemia): 11.9 µM | TGI (UACC-257 melanoma): 14.8 µM | TGI (SNB-78 CNS): 10.1 µM | TGI (RXF-631 renal): 24.5 µM | TGI (IGROV1 ovarian): 8.53 µM | TGI (MOLT-4 leukemia): 4.79 µM | TGI (OVCAR-8 ovarian): 14 µM | TGI (HL-60(TB) leukemia): 3.86 µM | TGI (NCI-H23 lung): 6.63 µM | TGI (KM12 colon): 16.5 µM
